Bounds are passed on as bounds.

Experiment in all cases: Biochemical Evaluation
One experiment deals with T1, Prolyl endopeptidase (Homo sapiens, UniProt P48147).
T1 sequence (P48147 whole entry): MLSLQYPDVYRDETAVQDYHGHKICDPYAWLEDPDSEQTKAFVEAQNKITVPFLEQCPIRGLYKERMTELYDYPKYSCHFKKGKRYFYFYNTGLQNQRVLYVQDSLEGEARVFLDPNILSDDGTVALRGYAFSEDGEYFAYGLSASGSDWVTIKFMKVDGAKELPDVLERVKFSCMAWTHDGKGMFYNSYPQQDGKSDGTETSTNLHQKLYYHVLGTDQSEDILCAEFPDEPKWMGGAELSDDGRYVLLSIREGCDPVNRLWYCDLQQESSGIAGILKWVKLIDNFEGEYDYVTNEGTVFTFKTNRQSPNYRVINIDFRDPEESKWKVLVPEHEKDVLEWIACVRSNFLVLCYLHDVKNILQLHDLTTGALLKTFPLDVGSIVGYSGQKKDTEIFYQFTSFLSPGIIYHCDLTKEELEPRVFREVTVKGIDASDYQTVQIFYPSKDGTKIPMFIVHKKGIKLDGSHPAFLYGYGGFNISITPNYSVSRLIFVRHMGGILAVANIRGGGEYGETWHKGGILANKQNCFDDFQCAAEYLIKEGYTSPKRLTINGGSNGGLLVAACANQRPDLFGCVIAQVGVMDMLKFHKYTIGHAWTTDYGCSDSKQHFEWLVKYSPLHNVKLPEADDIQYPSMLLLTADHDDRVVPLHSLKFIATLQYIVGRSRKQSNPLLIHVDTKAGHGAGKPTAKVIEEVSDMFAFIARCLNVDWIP
From the text: (§1) Table 1 and 2: The compounds were biochemically evaluated against a panel consisting of all enzymatically active DASH enzymes (DPP4, DPP8, DPP9, DPP2, FAP) and PREP.

The next experiment concerns the target T2, Prolyl endopeptidase FAP (Homo sapiens, UniProt Q12884).
T2 sequence (Q12884 whole entry): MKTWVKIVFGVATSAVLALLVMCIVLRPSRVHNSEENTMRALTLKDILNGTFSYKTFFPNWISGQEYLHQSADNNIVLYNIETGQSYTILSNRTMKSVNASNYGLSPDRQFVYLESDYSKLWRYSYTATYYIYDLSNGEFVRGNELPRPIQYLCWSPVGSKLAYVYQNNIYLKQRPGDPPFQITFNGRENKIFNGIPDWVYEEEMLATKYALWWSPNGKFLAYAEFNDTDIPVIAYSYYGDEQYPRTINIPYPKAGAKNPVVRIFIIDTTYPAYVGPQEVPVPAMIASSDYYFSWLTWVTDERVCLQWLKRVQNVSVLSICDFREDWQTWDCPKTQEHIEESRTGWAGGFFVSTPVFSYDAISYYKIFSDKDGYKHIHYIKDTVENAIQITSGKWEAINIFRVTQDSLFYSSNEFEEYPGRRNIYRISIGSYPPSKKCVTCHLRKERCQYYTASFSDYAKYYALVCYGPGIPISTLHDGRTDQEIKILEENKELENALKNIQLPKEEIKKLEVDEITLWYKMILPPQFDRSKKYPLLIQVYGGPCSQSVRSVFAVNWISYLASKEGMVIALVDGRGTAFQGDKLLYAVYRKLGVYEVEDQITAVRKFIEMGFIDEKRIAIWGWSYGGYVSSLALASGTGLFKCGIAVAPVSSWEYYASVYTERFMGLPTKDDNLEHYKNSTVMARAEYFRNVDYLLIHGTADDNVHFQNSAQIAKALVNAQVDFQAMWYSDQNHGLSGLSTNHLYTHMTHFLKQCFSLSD
Excerpt: as §1

The next experiment deals with Dipeptidyl peptidase 2 (Homo sapiens, UniProt Q9UHL4).
Excerpt: as §1

As to `CC(C)(C)OC(=O)NC12CC3CC(CC(N)(C3)C1)C2` [US20250353833, Compound 4], the IC50 (as a rule, the concentration that gives 50% inhibition) against Prolyl endopeptidase was > 10 µM; against Prolyl endopeptidase FAP, > 10 µM; against Dipeptidyl peptidase 2 it was > 5 µM.
